Assays:
[1] = test system: annual morning glory; assay: Postemergent control of plant species; assay type: in vivo, Ipomoea spp.; conditions: Ipomoea, post-emergence, 336 h, read-out: percent postemergent control
Outline: (§1)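 Growth reduction versus untreated plants of each species, scored about two weeks after spraying, defines control here. Test emulsions contained compound in acetone diluted 1:1 into water bearing 0.1% surfactant; plants were treated at the 2-4 leaf stage in the greenhouse.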

[2] = test system: barnyardgrass; assay: Control of aquatic plant species (paddy water); assay type: in vivo, Echinochloa crusgalli; conditions: Echinochloa crus-galli, 216 h, nine days, read-out: Percent control; for pest or weed control at 1000 g/ha: 1.0 Kg/Ha
Description: In testing for such utility, the plant species to be tested were transplanted into 16 oz. containers into about 2 inches of soil when they were in the 1-2 inch stage and then flooded to a depth of about 1 inch. An acetone concentrate of the chemical to be tested was then injected into the paddy water, the volume injected being varied as desired to provide the desired concentration. Percent control was evaluated nine days after application.

[3] = test system: yellow nutsedge; assay: Control of aquatic plant species (paddy water); assay type: in vivo, Cyperus esculentus; conditions: Cyperus, 216 h, nine days, read-out: Percent control; for pest or weed control at 1000 g/ha: 1.0 Kg/Ha
Outline: (§2)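 Percent control is scored nine days after treatment. Plants go into about 2 inches of soil at the 1-2 inch stage and are flooded to about 1 inch, then test compound in acetone concentrate is injected into the standing water at a volume chosen for the desired concentration.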

[4] = test system: barnyardgrass; assay: Preemergent control of plant species; assay type: in vivo, Echinochloa crusgalli; conditions: Echinochloa crus-galli, pre-emergence, 336 h; 0.25 lb/acre; read-out: percent preemergent control
Outline: (§3)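 Seeds planted in good agricultural soil beds; active ingredients then applied to the bed surface as aqueous emulsion at listed rates. Beds kept two weeks in greenhouse with watering. Control scored against water-treated beds.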

[5] = test system: soybean; assay: Preemergent control of plant species; assay type: in vivo, Glycine max.; conditions: Glycine max, pre-emergence, 336 h; 0.25 lb/acre; read-out: percent preemergent control
Outline: as §3

[6] = test system: cotton; assay: Postemergent control of plant species; assay type: in vivo, Gossypium spp.; conditions: Gossypium hirsutum, post-emergence, 336 h, read-out: percent postemergent control
Outline: as §1

[7] = test system: corn; assay: Preemergent control of plant species; assay type: in vivo, Zea mays; conditions: Zea mays, pre-emergence, 336 h; 0.25 lb/acre; read-out: percent preemergent control
Outline: as §3

[8] = test system: rape; assay: Preemergent control of plant species; assay type: in vivo, Brassica napus; conditions: Brassica napus, pre-emergence, 336 h; 0.25 lb/acre; read-out: percent preemergent control
Outline: as §3

[9] = test system: sprangletop; assay: Control of aquatic plant species (paddy water); assay type: in vivo, Leptochloa filiformis; conditions: Leptochloa filiformis, 216 h, nine days, read-out: Percent control; for pest or weed control at 1000 g/ha: 1.0 Kg/Ha
Outline: as §2

[10] = test system: rice; assay: Control of aquatic plant species (paddy water); assay type: in vivo, Oryza sativa; conditions: Oryza sativa, 216 h, nine days, read-out: Percent control; for pest or weed control at 1000 g/ha: 1.0 Kg/Ha
Outline: as §2

[11] = test system: sorghum; assay: Preemergent control of plant species; assay type: in vivo, Sorghum vulgare; conditions: Sorghum, pre-emergence, 336 h; 0.25 lb/acre; read-out: percent preemergent control
Outline: as §3

[12] = test system: crabgrass; assay: Preemergent control of plant species; assay type: in vivo, Digitaria spp.; conditions: Digitaria sanguinalis, pre-emergence, 336 h; 0.25 lb/acre; read-out: percent preemergent control
Outline: as §3

[13] = test system: rice; assay: Postemergent control of plant species; assay type: in vivo, Oryza sativa; conditions: Oryza sativa, post-emergence, 336 h, read-out: percent postemergent control
Outline: as §1

[14] = test system: velvetleaf; assay: Preemergent control of plant species; assay type: in vivo, Abutilon theophrasti; conditions: Abutilon theophrasti, pre-emergence, 336 h; 0.25 lb/acre; read-out: percent preemergent control
Outline: as §3

[15] = test system: corn; assay: Postemergent control of plant species; assay type: in vivo, Zea mays; conditions: Zea mays, post-emergence, 336 h, read-out: percent postemergent control
Outline: as §1

[16] = test system: yellow foxtail; assay: Preemergent control of plant species; assay type: in vivo, Setaria lutescens; conditions: Setaria, pre-emergence, 336 h; 0.25 lb/acre; read-out: percent preemergent control
Outline: as §3

[17] = test system: crabgrass; assay: Postemergent control of plant species; assay type: in vivo, Digitaria spp.; conditions: Digitaria sanguinalis, post-emergence, 336 h, read-out: percent postemergent control
Outline: as §1

[18] = test system: annual morning glory; assay: Preemergent control of plant species; assay type: in vivo, Ipomoea spp.; conditions: Ipomoea, pre-emergence, 336 h; 0.25 lb/acre; read-out: percent preemergent control
Outline: as §3

Row | SMILES | pest or weed control at 500 ppm [1] [%] | pest or weed control at 1000 g/ha [2] [%] | pest or weed control at 1000 g/ha [3] [%] | pest or weed control at 280.212 g/ha [4] [%] | plant injury at 280.212 g/ha [5] [%] | plant injury at 500 ppm [6] [%] | plant injury at 280.212 g/ha [7] [%] | plant injury at 280.212 g/ha [8] [%] | pest or weed control at 1000 g/ha [9] [%] | pest or weed control at 1000 g/ha [10] [%] | pest or weed control at 280.212 g/ha [12] [%] | plant injury at 500 ppm [13] [%] | pest or weed control at 280.212 g/ha [14] [%] | plant injury at 500 ppm [15] [%] | pest or weed control at 280.212 g/ha [16] [%] | pest or weed control at 500 ppm [17] [%] | pest or weed control at 280.212 g/ha [18] [%] | other results
1 | CCc1cccc(CC)c1NS(=O)(=O)c1nc2nc(C)cc(C)n2n1 [Compound 33] | 60 | 97 | 97 | 50 | 10 | 50 | 0 | 80 | 90 | 97 | 10 | 0 | 0 | 25 | 0 | 0 | 0 | plant injury at 280.212 g/ha [11]: 0%
2 | COC(=O)c1cccc(F)c1NS(=O)(=O)c1nc2nc(C)cc(C)n2n1 [Compound 26] | 90 |  |  | 98 | 98 | 100 | 100 | 98 |  |  | 100 | 80 | 95 | 80 | 100 | 90 | 95 | pest or weed control at 125 g/ha ([2]; 0.125 Kg/Ha): 90%; pest or weed control at 125 g/ha ([3]; 0.125 Kg/Ha): 95%; pest or weed control at 125 g/ha ([9]; 0.125 Kg/Ha): 0%; pest or weed control at 125 g/ha ([10]; 0.125 Kg/Ha): 93%
3 | Cc1cc(C)n2nc(S(=O)(=O)Nc3ccccc3[N+](=O)[O-])nc2n1 [Compound 12] | 100 | 97 | 95 | 40 | 95 |  | 50 | 95 | 0 | 70 | 10 | 25 | 30 | 10 | 0 | 25 | 50 | 

From patent US4740233A, “Substituted 1,2,4-triazolo[1,5-a]-pyrimidine-2-sulfonamides and compositions and methods of controlling undesired vegetation and suppressing the nitrification of ammonium nitrogen in soil” (The Dow Chemical Company, priority 1986, dated 1988)
